# From patent US10501479B2, “Benzenesulfonyl-asymmetric ureas and medical uses thereof” (HELSINN HEALTHCARE SA, priority 2016, dated 2019)
# Where two headings read alike, the source gives them in different places.
# Legend:
# [1] = Metabolic stability in mouse liver microsomes; format: in vitro ADME
# Description: (§1) Metabolic Stability Study
# (§2) The metabolic stability of compounds in human, dog, rat and mouse liver microsomes was performed according the experimental conditions reported below:
# (§3) • a) Prepare the following 5 stock solutions: • 1. Test compound stock solutions: dilute 10 mM solution of dextromethorphan (Dtr) in DMSO, 10 mM solution of diphenhydramine (DPA) in DMSO, 10 mM solution of omeprazole (Ome) in DMSO, 10 mM solution of verapamil (Ver) in DMSO, and 10 mM of an inverse agonist compound in DMSO to 0.25 mM solution each with acetonitrile/water (70/30). • 2. Buffer: 100 mM potassium phosphate Buffer (PBS) at pH 7.4 • 3. Liver microsomes (20 mg/ml): Thaw in 37° C. water bath quickly • 4. 2000 μL: of NADPH regenerating system (1.3 mM). Place this system on ice before use:
# (§4) • 5. […] The test compound concentration in the wells, measured by LC-MS/MS, represents the concentration at time=0. • f) To determine the test compound concentration when t≠0, pre-incubate the NADPH regenerating system and the incubation plate containing the remaining 320 μL of incubation mixture (microsomes protein and test compound) for 5 minutes at 37° C. • g) Start the incubation reaction by adding 80 μL NADPH regenerating system to each well containing the remaining 320 μL incubation mixture. • h) After 10 min., 30 min., and 90 min. of incubation at 37° C., transfer 100 μL of the incubation mixture (microsomes protein, test compound, and NADPH) into the wells of a stop plate pre-filled with 300 μL of the cold quench solution. Shake well. • i) Centrifuge the stop plate at 5000×g for 10 minutes. Collect and dilute the supernatant 3 times with distilled water. Sample and analyze the test compound concentration for all the wells by LC-MS/MS. Animal PK Studies via i.v. (intravenous), p.o. (orally) and s.c. (subcutaneous) administrations
# [2] = Metabolic stability in human liver microsomes; format: in vitro ADME
# Description: as §1, §2, §3, §4
# [3] = molecular target: T1, GHSR-1a (HEK293/GHSR1a cell line) (Homo sapiens, UniProt Q92847); experiment: Ghrelin antagonist potency (IC50) with calcium FLIPR assay, ghrelin 10 nM; format: cell-based
# T1 construct: expressed in transfected cells; host or cells: HEK293/GHSR1a cell line
# In short: (§5)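 HEK293/GHSR1a cells, seeded 24 hr ahead and loaded with calcium dye 30-60 min, were read by FLIPR fluorescence for 2 min after addition at t=20 sec. Agonism: compound alone, EC50 from dose-response. Antagonism: compound plus 10 nM ghrelin, IC50 from reduction of ghrelin response.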
# [4] = molecular target: T2, recombinant human ghrelin receptor (HEK293/GRLN) (Homo sapiens, UniProt Q92847); experiment: Ghrelin inverse agonist potency (EC50) with IP-1 (IP-One HTRF) assay; format: cell-based; settings: IP-1 assay
# T2 construct: expressed in transfected cells
# In short: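 HEK293/GRLN cells were seeded 18-22 hours before the test, then exposed to compound in stimulation buffer for 1 hour at 37° C, 5% CO2. IP-1 was detected by IP-One HTRF (IP1-d2 plus Tb-cryptate, 1 hour RT), reading 620 and 665 nm; the inverse agonist EC50 was derived from this.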
# [5] = molecular target: T1, GHSR-1a (HEK293/GHSR1a cell line); experiment: Ghrelin agonist potency (EC50) with calcium FLIPR assay; format: cell-based; settings: ghrelin agonist potency, read-out: Activity EC50/EMax
# In short: as §5
# [6] = Animal PK study in mouse via i.v., p.o. and s.c. administration; format: in vivo; settings: for PK CLiv / PK Vdiv / PK t1/2iv: i.v.; for PK CLpo / PK Vdpo / PK t1/2po: p.o.
# Description: All treated animals received a single dose of a test compound (either through i.v., p.o., or s.c. administration) according to the regimen shown in the following table:
# For oral dose groups, appropriate amount of test compound was prepared in the following formulation carrier: 1% DMSO (increase to 5% maximum if necessary) and 0.5% Methycellulose. Each mouse or rat received by oral gavage 10 mL/kg of the formulation mixture.
# For i.v. and s.c dose groups, appropriate amount of test compound was dissolved in 1% DMSO (increase to 5% maximum if necessary), 99% of 20% HP-β-Cyclodextron (w/v). The pH was adjusted accordingly. Each mouse or rat received 5 mL/kg of the formulation mixture. i.v. dose was administered by tail vein injection. Subcutaneous injection was administered over the shoulders, into the loose skin over the neck. At designated time points (e.g., i.v. and s.c.: 0.083, 0.25, 0.5, 1, 2, 4, 8 and 24 hrs; p.o.: 0.25, 0.5, 1, 2, 4, 8 and 24 hrs), systemic samples of blood (50 μL in mouse or 500 μL in rat) were collected by puncture (submandibular vein in mouse or jugular vein in rat) into vacutainers containing EDTA-K2 as anti-coagulant. The blood was centrifuged at 6000 rpm for 8 min at 4° C. to obtain plasma. All plasma samples were stored at −20° C. All plasma samples were added to acetonitrile for protein precipitation and quantitatively analyzed by LC-MS/MS.
# [7] = ghrelin antagonist potency, read-out: IC50 (Activity)
# [8] = inverse agonist potency, read-out: EC50 (Activity)
# [9] = ghrelin antagonist potency, read-out: Activity IC50
# [10] = ghrelin inverse agonist potency, read-out: Activity EC50
# T2 sequence (Q92847 whole entry): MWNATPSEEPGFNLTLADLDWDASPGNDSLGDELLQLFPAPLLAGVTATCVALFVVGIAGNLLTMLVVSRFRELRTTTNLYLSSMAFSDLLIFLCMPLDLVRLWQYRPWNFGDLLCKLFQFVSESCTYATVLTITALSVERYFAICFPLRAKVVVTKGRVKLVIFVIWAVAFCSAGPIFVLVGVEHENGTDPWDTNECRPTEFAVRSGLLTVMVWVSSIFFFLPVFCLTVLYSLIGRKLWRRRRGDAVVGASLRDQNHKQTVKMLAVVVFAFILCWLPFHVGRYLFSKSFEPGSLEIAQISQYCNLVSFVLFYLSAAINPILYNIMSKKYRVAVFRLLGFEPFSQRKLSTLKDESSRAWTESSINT
# T1 sequence (Q92847 whole entry): as above
SMILES,Metabolic Stability Study H = human [2],EC50 [5],"IC50 [3, 9]","EC50 [4, 10]",other results
"Cc1oc(=O)oc1CN1CCc2cc(NS(=O)(=O)c3ccc(NC(=O)N[C@@H](C)c4cccc(Cl)c4Cl)cc3)ccc2C1 [H1068, (S)-4-(3-(1-(2,3-dichlorophenyl)ethyl)ureido)-N-(2-((5-methyl-2-oxo-1,3-dioxol-4-yl)methyl)-1,2,3,4-tetrahydroisoquinolin-6-yl)benzenesulfonamide]",199.7 µL/min/mg,,,,"Metabolic Stability Study M = mouse [1]: 196.4 µL/min/mg; IC50 [3, 7]: 26.3 nM; EC50 [4, 8]: 8.4 nM"
"COc1cc(S(=O)(=O)Cc2ccc3c(c2)CN(C)C3)ccc1NC(=O)N(O)C(C)c1cccc(Cl)c1Cl (centres unmarked) [H1496, 1-(1-(2,3-dichlorophenyl)ethyl)-1-hydroxy-3-(2-methoxy-4-(((2-methylisoindolin-5-yl)methyl)sulfonyl)phenyl)urea]",H = 178.3 μL/min/mg,> 30000 nM,5.91 nM,2.5 nM,
"COc1cc(S(=O)(=O)Cc2ccc3c(c2)CNC3)ccc1NC(=O)N(O)C(C)c1cccc(Cl)c1Cl (centres unmarked) [H1495, 1-(1-(2,3-dichlorophenyl)ethyl)-1-hydroxy-3-(4-((isoindolin-5-ylmethyl)sulfonyl)-2-methoxyphenyl)urea]",H = 21.1 μL/min/mg,> 30000 nM,2.16 nM,1.2 nM,
"CC(NC(=O)Nc1ccc(S(=O)(=O)Cc2ccc3c(c2)CNC3)c(Cl)c1)c1ccccc1 (centres unmarked) [H1494, 1-(3-chloro-4-((isoindolin-5-ylmethyl)sulfonyl)phenyl)-3-(1-phenylethyl)urea]",H = 19.1 μL/min/mg,> 30000 nM,10.6 nM,4 nM,
"Cc1cc(NC(=O)NC(C)c2ccccc2)ccc1S(=O)(=O)Cc1ccc2c(c1)CNC2 (centres unmarked) [H1493, 1-(4-((isoindolin-5-ylmethyl)sulfonyl)-3-methylphenyl)-3-(1-phenylethyl)urea]",H = 21.5 μL/min/mg,> 30000 nM,15.3 nM,4.2 nM,
"CNC(=O)c1cc(S(=O)(=O)Cc2ccc3c(c2)CNC3)ccc1NC(=O)NC(C)c1ccccc1 (centres unmarked) [H1499, 5-((isoindolin-5-ylmethyl)sulfonyl)-N-methyl-2-(3-(1-phenylethyl)ureido)benzamide]",H = 27.1 μL/min/mg,> 30000 nM,38 nM,7.1 nM,
"CC(NC(=O)Nc1ccc(S(=O)(=O)Cc2ccc3c(c2)CNC3)cc1-c1ncco1)c1ccccc1 (centres unmarked) [H1500, 1-(4-((isoindolin-5-ylmethyl)sulfonyl)-2-(oxazol-2-yl)phenyl)-3-(1-phenylethyl)urea]",H = 61.4 μL/min/mg,> 30000 nM,16.4 nM,6.2 nM,
"CC(c1ccccc1F)N(O)C(=O)Nc1ccc(S(=O)(=O)Cc2ccc3c(c2)CNC3)cc1.Cl (centres unmarked) [H1490, 1-(1-(2-fluorophenyl)ethyl)-1-hydroxy-3-(4-((isoindolin-5-ylmethyl)sulfonyl)phenyl)urea]",H = 12.8 μL/min/mg,> 30000 nM,5.43 nM,3.6 nM,
"CC(NC(=O)Nc1ccc(S(=O)(=O)Cc2ccc3c(c2)CNC3)c(F)c1)c1ccccc1.Cl (centres unmarked) [H1492, 1-(3-fluoro-4-((isoindolin-5-ylmethyl)sulfonyl)phenyl)-3-(1-phenylethyl)urea]",H = 24.4 μL/min/mg,> 30000 nM,36.3 nM,5.1 nM,
"CC(NC(=O)Nc1ccc(S(=O)(=O)Cc2ccc3c(c2)CNC3)c(Br)c1)c1ccccc1 (centres unmarked) [H1504, 1-(3-bromo-4-((isoindolin-5-ylmethyl)sulfonyl)phenyl)-3-(1-phenylethyl)urea]",H = 19.3 μL/min/mg,> 30000 nM,6.47 nM,5.55 nM,
"CCOC(=O)N1CCc2cc(NS(=O)(=O)c3ccc(NC(=O)N[C@@H](C)c4cccc(Cl)c4Cl)cc3)ccc2C1 [H1054, ethyl (S)-6-((4-(3-(1-(2,3-dichlorophenyl)ethyl)ureido)phenyl)sulfonamido)-3,4-dihydroisoquinoline-2(1H)-carboxylate]",,,,,"PK F [6]: 3.0%; PK CLiv [6]: 27 mL/min/kg; PK Vdiv [6]: 4.32 L/kg; PK t1/2iv [6]: 1.85 h; PK CLpo [6]: 898 mL/min/kg; PK Vdpo [6]: 96.2 L/kg; PK t1/2po [6]: 1.24 h; IC50 [3, 7]: 10100 nM"
"CC(c1ccccc1F)N(O)C(=O)Nc1ccc(S(=O)(=O)Cc2ccc3c(c2)CN(C)C3)cc1 (centres unmarked) [H1491, 1-(1-(2-fluorophenyl)ethyl)-1-hydroxy-3-(4-(((2-methylisoindolin-5-yl)methyl)sulfonyl)phenyl)urea]",H = 79.5 μL/min/mg,> 30000 nM,29.7 nM,4.6 nM,
"COc1ccc([C@H](C)NC(=O)Nc2ccc(S(=O)(=O)Nc3ccc4c(c3)CCNC4)cc2)c(Cl)c1Cl.Cl [H1005, (S)-4-(3-(1-(2,3-dichloro-4-methoxyphenyl)ethyl)ureido)-N-(1,2,3,4-tetrahydroisoquinolin-6-yl)benzenesulfonamide]",,,,,"PK F [6]: 1.3%; PK CLiv [6]: 7.33 mL/min/kg; PK Vdiv [6]: 1.46 L/kg; PK t1/2iv [6]: 2.3 h; PK CLpo [6]: 555.5 mL/min/kg; PK Vdpo [6]: 112.3 L/kg; PK t1/2po [6]: 2.33 h; IC50 [3, 7]: 19.8 nM; EC50 [4, 8]: 8.88 nM"
"C[C@H](NC(=O)Nc1ccc(S(=O)(=O)Nc2ccc3c(c2)CCNC3)cc1)c1cccc(Cl)c1Cl.Cl [H1004, (S)-4-(3-(1-(2,3-dichlorophenyl)ethyl)ureido)-N-(1,2,3,4-tetrahydroisoquinolin-6-yl)benzenesulfonamide]",,,,,"PK F [6]: 13%; PK CLiv [6]: 592 mL/min/kg; PK Vdiv [6]: 37.7 L/kg; PK t1/2iv [6]: 0.74 h; PK CLpo [6]: 3732 mL/min/kg; PK Vdpo [6]: 479.2 L/kg; PK t1/2po [6]: 1.48 h; IC50 [3, 7]: 3.7 nM; EC50 [4, 8]: 3.97 nM"
"O=C(NCc1ccccc1)Nc1ccc2c(c1)CC(c1ccc3c(c1)CNC3)S2(=O)=O (centres unmarked) [H1271, 1-benzyl-3-(2-(isoindolin-5-yl)-1,1-dioxido-2,3-dihydrobenzo[b]thiophen-5-yl)urea]",H < 10 M < 10 R = not reported D = not reported μL/min/mg,,,,"Metabolic Stability Study M = mouse [1]: H < 10 M < 10 R = not reported D = not reported μL/min/mg; IC50 ([3]; HEK293/GHSR1a, ghrelin 10 nM, read-out: Activity IC50 (ghrelin antagonist potency)): 5 nM"
"CC(NC(=O)Nc1ccc(S(=O)(=O)Cc2ccc3c(c2)CN(C)C3)cc1-c1ncco1)c1ccccc1 (centres unmarked) [H1501, 1-(4-(((2-methylisoindolin-5-yl)methyl)sulfonyl)-2-(oxazol-2-yl)phenyl)-3-(1-phenylethyl)urea]",H = 319.6 μL/min/mg,> 30000 nM,119 nM,18.1 nM,
